Assay results: patent US11685746B2, “Heteroaryl compounds for treating Huntington's disease” (PTC THERAPEUTICS, INC., priority 2018, dated 2023)

Each compound was assayed on Endogenous Huntingtin Protein (assay: Endogenous Huntingtin Protein Assay (MSD plates, MW1 or MAB2166 capture antibody)). Conditions: Table 1.
Format: cell-based
Procedure: Endogenous Huntingtin Protein Assay
Meso Scale Discovery (MSD) 96-well or 384-well plates were coated overnight at 4° C. with MW1 (expanded polyglutamine) or MAB2166 monoclonal antibody (for capture) at a concentration of 1 μg/mL in PBS (30 μL per well). Plates were then washed three times with 300 μL wash buffer (0.05% Tween-20 in PBS) and blocked (100 μL blocking buffer; 5% BSA in PBS) for 4-5 hours at room temperature with rotational shaking and then washed three times with wash buffer.
Samples (25 μL) were transferred to the antibody-coated MSD plate and incubated overnight at 4° C. After removal of the lysates, the plate was washed three times with wash buffer, and 25 μL of #5656S (Cell signaling; rabbit monoclonal) secondary antibody (diluted to 0.25 μg/mL in 0.05% Tween-20 in blocking buffer) was added to each well and incubated with shaking for 1 Hour at room temperature. Following incubation with the secondary antibody, the wells were rinsed with wash buffer after which 25 μL of goat anti-rabbit SULFO TAG secondary detection antibody (required aspect of the MSD system) (diluted to 0.25 μg/mL in 0.05% Tween-20 in blocking buffer) was added to each well and incubated with shaking for 1 hour at room temperature. After rinsing three times with wash buffer, 150 μL of read buffer T with surfactant (MSD) were added to each empty well, and the plate was imaged on a SI 6000 imager (MSD) according to manufacturers' instructions provided for 96- or 384-well plates.

Compound	IC50 [nM]
[2H]C([2H])([2H])n1cc(-c2ccc(-c3nc4sc(N(C)C5CCN(C)CC5)nc4s3)c(O)c2)cn1 [Compound 58, 2-{5-[methyl(1-methylpiperidin-4-yl)amino][1,3]thiazolo[5,4-d][1,3]thiazol-2-yl}-5-[1-(^2H3)methyl-1H-pyrazol-4-yl]phenol]	≤ 100
CC1CC(N(C)c2nc3sc(-c4ccc(-c5cn[nH]c5)cn4)nc3s2)CCN1C (centres unmarked) [Compound 126, N-(1,2-dimethylpiperidin-4-yl)-N-methyl-5-[5-(1H-pyrazol-4-yl)pyridin-2-yl][1,3]thiazolo[5,4-d][1,3]thiazol-2-amine]	100 to 500
CN(c1nc2sc(-n3ccc(-c4cn[nH]c4)cc3=O)nc2s1)[C@H]1C[C@]2(C)CC[C@](C)(C1)N2 [Compound 146, 1-(5-{[(1R,3s,5S)-1,5-dimethyl-8-azabicyclo[3.2.1]octan-3-yl](methyl)amino}[1,3]thiazolo[5,4-d][1,3]thiazol-2-yl)-4-(1H-pyrazol-4-yl)pyridin-2(1H)-one]	≤ 100
CN(c1nc2sc(-c3cc(F)c(-c4cn[nH]c4)cc3F)nc2s1)[C@@H]1C[C@H]2CC[C@@H](C1)N2 [Compound 158, N-[(1R,3s,5S)-8-azabicyclo[3.2.1]octan-3-yl]-5-[2,5-difluoro-4-(1H-pyrazol-4-yl)phenyl]-N-methyl[1,3]thiazolo[5,4-d][1,3]thiazol-2-amine]	≤ 100
CN(c1nc2sc(-c3ncc(-c4cn[nH]c4)cn3)nc2s1)C1CC(C)(C)NC(C)(C)C1 [Compound 162, N-methyl-5-[5-(1H-pyrazol-4-yl)pyrimidin-2-yl]-N-(2,2,6,6-tetramethylpiperidin-4-yl)[1,3]thiazolo[5,4-d][1,3]thiazol-2-amine]	≤ 100
CN(c1nc2sc(-c3ccc(-c4cn[nH]c4)c4cc[nH]c34)nc2s1)[C@@H]1C[C@H]2CC[C@@H](C1)N2 [Compound 183, N-[(1R,3s,5S)-8-azabicyclo[3.2.1]octan-3-yl]-N-methyl-5-[4-(1H-pyrazol-4-yl)-1H-indol-7-yl][1,3]thiazolo[5,4-d][1,3]thiazol-2-amine]	≤ 100
C[C@@H]1C[C@@H](Oc2nc3sc(-c4ccc(-c5cn[nH]c5)c5cn[nH]c45)nc3s2)CCN1 [Compound 78, 7-(5-{[(2R,4S)-2-methylpiperidin-4-yl]oxy}[1,3]thiazolo[5,4-d][1,3]thiazol-2-yl)-4-(1H-pyrazol-4-yl)-1H-indazole]	≤ 100
CCN1CCC(N(C)c2nc3sc(-c4ccc(-c5cnn(C)c5)cc4O)nc3s2)CC1 [Compound 59, 2-{5-[(1-ethylpiperidin-4-yl)(methyl)amino][1,3]thiazolo[5,4-d][1,3]thiazol-2-yl}-5-(1-methyl-1H-pyrazol-4-yl)phenol]	≤ 100
CN1CCC(N(C)c2nn3cc(-c4cc(C#N)c5nn(C)cc5c4)nc3s2)CC1 [Compound 31, 2-methyl-5-{2-[methyl(1-methylpiperidin-4-yl)amino]imidazo[2,1-b][1,3,4]thiadiazol-6-yl}-2H-indazole-7-carbonitrile]	3000 to 9000
C[C@@H]1C[C@@H](Oc2nc3sc(-c4ncc(-c5cn[nH]c5)c5cn[nH]c45)nc3s2)CCN1 [Compound 74, 7-(5-{[(2R,4S)-2-methylpiperidin-4-yl]oxy}[1,3]thiazolo[5,4-d][1,3]thiazol-2-yl)-4-(1H-pyrazol-4-yl)-1H-pyrazolo[3,4-c]pyridine]	≤ 100
CN(c1nc2sc(-c3ncc(-c4ccc5nncn5c4)cc3O)nc2s1)C1CCNCC1 [Compound 210, 2-{5-[methyl(piperidin-4-yl)amino][1,3]thiazolo[5,4-d][1,3]thiazol-2-yl}-5-([1,2,4]triazolo[4,3-a]pyridin-6-yl)pyridin-3-ol]	3000 to 9000
CN(c1nc2sc(-c3ncc(-n4ccnn4)cc3O)nc2s1)C1CCNCC1 [Compound 215, 2-{5-[methyl(piperidin-4-yl)amino][1,3]thiazolo[5,4-d][1,3]thiazol-2-yl}-5-(1H-1,2,3-triazol-1-yl)pyridin-3-ol]	100 to 500
N-methyl-N-[(2S,4R)-2-methylpiperidin-4-yl]-5-[4-(1H-pyrazol-4-yl)-1H-pyrrolo[2,3-c]pyridin-7-yl][1,3]thiazolo[5,4-d][1,3]thiazol-2-amine [Compound 71]	100 to 500
CN(c1nc2sc(-c3cc(F)c(-c4cn[nH]c4)cc3F)nc2s1)C1CCNCC1 [Compound 20, 5-[2,5-difluoro-4-(1H-pyrazol-4-yl)phenyl]-N-methyl-N-(piperidin-4-yl)[1,3]thiazolo[5,4-d][1,3]thiazol-2-amine]	100 to 500
CN(c1nc2sc(-c3ncc(-c4cn[nH]c4)cc3O)nc2s1)C1CC(C)(C)NC(C)(C)C1 [Compound 42, 2-{5-[methyl(2,2,6,6-tetramethylpiperidin-4-yl)amino][1,3]thiazolo[5,4-d][1,3]thiazol-2-yl}-5-(1H-pyrazol-4-yl)pyridin-3-ol]	≤ 100
CC1CC(N(C)c2nc3sc(-c4ccc(Cl)c5cc[nH]c45)nc3s2)CCN1C (centres unmarked) [Compound 119, 5-(4-chloro-1H-indol-7-yl)-N-(1,2-dimethylpiperidin-4-yl)-N-methyl[1,3]thiazolo[5,4-d][1,3]thiazol-2-amine]	1000 to 3000
CN(c1nc2sc(-c3ccc(-c4cn[nH]c4)c4cc[nH]c34)nc2s1)C1CC(C)(C)NC(C)(C)C1 [Compound 128, N-methyl-5-[4-(1H-pyrazol-4-yl)-1H-indol-7-yl]-N-(2,2,6,6-tetramethylpiperidin-4-yl)[1,3]thiazolo[5,4-d][1,3]thiazol-2-amine]	≤ 100
CN(c1nc2sc(-n3ccc(-c4cn[nH]c4)cc3=O)nc2s1)C1CC(C)(C)NC(C)(C)C1 [Compound 181, 1-{5-[methyl(2,2,6,6-tetramethylpiperidin-4-yl)amino][1,3]thiazolo[5,4-d][1,3]thiazol-2-yl}-4-(1H-pyrazol-4-yl)pyridin-2(1H)-one]	≤ 100
CN(c1nc2sc(-c3ccc(-c4cn[nH]c4F)cc3O)nc2s1)C1CC(C)(C)NC(C)(C)C1 [Compound 43, 5-(5-fluoro-1H-pyrazol-4-yl)-2-{5-[methyl(2,2,6,6-tetramethylpiperidin-4-yl)amino][1,3]thiazolo[5,4-d][1,3]thiazol-2-yl}phenol]	≤ 100
Oc1cc(-c2cn[nH]c2)ccc1-c1nc2sc(NC3CCNCC3)nc2s1 [Compound 22, 2-[5-(piperidin-4-ylamino)[1,3]thiazolo[5,4-d][1,3]thiazol-2-yl]-5-(1H-pyrazol-4-yl)phenol]	≤ 100
CN1CCC2(CC1)CN(c1nc3sc(-c4ncc(-c5cn[nH]c5)c5cc[nH]c45)nc3s1)C2 [Compound 138, 7-[5-(7-methyl-2,7-diazaspiro[3.5]nonan-2-yl)[1,3]thiazolo[5,4-d][1,3]thiazol-2-yl]-4-(1H-pyrazol-4-yl)-1H-pyrrolo[2,3-c]pyridine]	≤ 100
CC1CC(N(C)c2nc3sc(-n4ccc(-c5cn[nH]c5)cc4=O)nc3s2)CCN1C (centres unmarked) [Compound 180, 1-{5-[(1,2-dimethylpiperidin-4-yl)(methyl)amino][1,3]thiazolo[5,4-d][1,3]thiazol-2-yl}-4-(1H-pyrazol-4-yl)pyridin-2(1H)-one]	≤ 100
CN(c1nc2sc(-c3ncc(-c4cn[nH]c4)nn3)nc2s1)[C@H]1C[C@]2(C)CC[C@](C)(C1)N2 [Compound 79, N-[(1R,3s,5S)-1,5-dimethyl-8-azabicyclo[3.2.1]octan-3-yl]-N-methyl-5-[6-(1H-pyrazol-4-yl)-1,2,4-triazin-3-yl][1,3]thiazolo[5,4-d][1,3]thiazol-2-amine]	≤ 100
Fc1cc(-c2nc3sc(N4CC5(CCNCC5)C4)nc3s2)c(F)cc1-c1cn[nH]c1 [Compound 177, 2-{5-[2,5-difluoro-4-(1H-pyrazol-4-yl)phenyl][1,3]thiazolo[5,4-d][1,3]thiazol-2-yl}-2,7-diazaspiro[3.5]nonane]	1000 to 3000
C[C@H]1C[C@H](Oc2nc3sc(-c4ncc(-c5nnn(C)n5)c5cc[nH]c45)nc3s2)CCN1 [Compound 81, 7-(5-{[(2S,4R)-2-methylpiperidin-4-yl]oxy}[1,3]thiazolo[5,4-d][1,3]thiazol-2-yl)-4-(2-methyl-2H-tetrazol-5-yl)-1H-pyrrolo[2,3-c]pyridine]	≤ 100
CC1CC(N(C)c2nc3sc(-n4ccc5ccc(O)nc54)nc3s2)CCN1C (centres unmarked) [Compound 157, 1-{5-[(1,2-dimethylpiperidin-4-yl)(methyl)amino][1,3]thiazolo[5,4-d][1,3]thiazol-2-yl]-1H-pyrrolo[2,3-b]pyridin-6-ol]	100 to 500
CN(c1nc2sc(-c3cnc(-c4cn[nH]c4)nc3)nc2s1)[C@@H]1C[C@H]2CC[C@@H](C1)N2 [Compound 175, N-[(1R,3s,5S)-8-azabicyclo[3.2.1]octan-3-yl]-N-methyl-5-[2-(1H-pyrazol-4-yl)pyrimidin-5-yl][1,3]thiazolo[5,4-d][1,3]thiazol-2-amine]	≤ 100
CC1CC(N(C)c2nc3sc(-c4cnc(-c5cn[nH]c5)nc4)nc3s2)CCN1C (centres unmarked) [Compound 130, N-(1,2-dimethylpiperidin-4-yl)-N-methyl-5-[2-(1H-pyrazol-4-yl)pyrimidin-5-yl][1,3]thiazolo[5,4-d][1,3]thiazol-2-amine]	1000 to 3000
CN(c1nc2sc(-c3ccc(-c4cn[nH]c4)cc3O)nc2s1)[C@H]1CCN[C@@H](CO)C1 [Compound 202, 2-(5-{[(2R,4S)-2-(hydroxymethyl)piperidin-4-yl](methyl)amino}[1,3]thiazolo[5,4-d][1,3]thiazol-2-yl)-5-(1H-pyrazol-4-yl)phenol]	≤ 100
